{"source": "patent US8481731B2", "about": "“Compounds, pharmaceutical composition and methods relating thereto” (Boehringer Ingelheim International GmbH, priority 2009, dated 2013)", "note": "Marks after values point to notes of the source that are not given here.", "data": [{"target": "T1, human GPR119 receptor (Homo sapiens, UniProt Q8TDV5, S329A/T327A)", "T1 construct": "N-terminal leader […]; expressed in transfected cells", "T1 sequence (Q8TDV5 with tags, fused parts or gaps T327A/S329A)": "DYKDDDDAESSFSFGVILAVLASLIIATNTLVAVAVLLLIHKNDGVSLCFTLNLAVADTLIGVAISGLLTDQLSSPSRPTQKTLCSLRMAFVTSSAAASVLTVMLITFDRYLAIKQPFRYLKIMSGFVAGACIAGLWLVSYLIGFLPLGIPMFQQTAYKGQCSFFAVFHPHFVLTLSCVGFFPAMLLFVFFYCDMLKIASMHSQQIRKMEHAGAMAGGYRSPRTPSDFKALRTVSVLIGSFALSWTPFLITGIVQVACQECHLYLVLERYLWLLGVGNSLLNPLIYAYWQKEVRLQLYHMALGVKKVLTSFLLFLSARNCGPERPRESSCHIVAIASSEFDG", "assay": "cAMP assay (LANCE cAMP-384 Kit), cAMP accumulation in HEK293 cells stably expressing mutant human GPR119 receptor", "format": "cell-based", "settings": "cAMP accumulation; HEK293 cells stably expressing a mutant form of the human GPR119 receptor; 20 min at 37° C.", "protocol": "(§1) Quantitative detection of cAMP accumulation from cells expressing human GPR119 receptor was achieved using Perkin Elmer's LANCE cAMP-384 Kit (Cat#AD0264) according to the manufacturer's protocol. Briefly, HEK293 cells stably expressing a mutant form of the human GPR119 receptor (Methionine 1 replaced with the amino acid sequence […], and T327 & S329 changed to alanines) were grown to 50-70% confluency in cell culture media (DMEM, 10% heat inactivated Fetal Bovine Serum, 50 I.U./mL penicillin, 50 μg/mL streptomycin, 10 mM HEPES, 20 μg/mL G418 Sulfate). On the day of the assay, GPR119 stable HEK293 cells were lifted from the tissue culture plate and 1000 cells/well were incubated along with various concentrations of test compounds for 20 min at 37° C. Detection Buffer (50 mM HEPES, 10 mM calcium chloride, 0.35% Triton X-100, 1 mg/mL BSA) containing cAMP-specific antibody was then added to all wells and allowed to equilibrate in the dark for 10 minutes at room temperature. Upon equilibration, Detection Buffer containing europium-labeled cAMP tracer complex was added to all wells and allowed to react for 1 hour at room temperature. After 1 hour, bound europium-labeled cAMP tracer was measured using a Perkin Elmer ViewLux. The quantity of cAMP generated in each well was derived from a standard curve.\n(§2) For some compounds for which no EC50 value could be determined, the efficacy is provided at a single concentration (10 μM) yielding % stimulation values.", "units": {"EC50": "nM"}, "values": [{"smiles": "CC(C)OC(=O)N1CCC(Oc2cc(N3CCc4cc(S(C)(=O)=O)ccc43)ncn2)CC1", "note": "[Compound 4-1, 4-[6-(5-Methanesulfonyl-2,3-dihydro-indol-1-yl)-pyrimidin-4-yloxy]-piperidine-1-carboxylic acid isopropyl ester]", "EC50": 33}, {"smiles": "CC(C)COC(=O)N1CCC(Oc2cc(N3CCc4cc(S(C)(=O)=O)ccc43)ncn2)CC1", "note": "[Compound 4-2]", "EC50": 42}, {"smiles": "CS(=O)(=O)c1ccc2c(c1)CCN2c1cc(OC2CCN(C(=O)OC3CCC3)CC2)ncn1", "note": "[Compound 5-1, 4-[6-(5-Methanesulfonyl-2,3-dihydro-indol-1-yl)-pyrimidin-4-yloxy]-piperidine-1-carboxylic acid cyclobutyl ester]", "EC50": 24}, {"smiles": "CS(=O)(=O)c1ccc2c(c1)CCN2c1cc(OC2CCN(C(=O)OCC3CC3)CC2)ncn1", "note": "[Compound 5-2]", "EC50": 23}, {"smiles": "CCC(C)OC(=O)N1CCC(Oc2cc(N3CCc4cc(S(C)(=O)=O)ccc43)ncn2)CC1", "note": "(stereo not shown) [Compound 5-3]", "EC50": 35}, {"smiles": "COCC(C)OC(=O)N1CCC(Oc2cc(N3CCc4cc(S(C)(=O)=O)ccc43)ncn2)CC1", "note": "(stereo not shown) [Compound 5-4]", "EC50": 100}, {"smiles": "CS(=O)(=O)c1ccc2c(c1)CCN2c1cc(OC2CCN(C(=O)OC(CF)CF)CC2)ncn1", "note": "[Compound 5-5]", "EC50": 242}, {"smiles": "CC(C)OC(=O)N1CCC(Nc2cc(N3CCc4cc(S(C)(=O)=O)ccc43)ncn2)CC1", "note": "[Compound 6-1, 4-[6-(5-Methanesulfonyl-2,3-dihydro-indol-1-yl)-pyrimidin-4-ylamino]-piperidine-1-carboxylic acid isopropyl ester]", "EC50": 611}, {"smiles": "CC(C)OC(=O)N1CCC(N(C)c2cc(N3CCc4cc(S(C)(=O)=O)ccc43)ncn2)CC1", "note": "[Compound 7-1, 4-[6-(5-Methanesulfonyl-2,3-dihydro-indol-1-yl)-pyrimidin-4-yl-methylamino]-piperidine-1-carboxylic acid isopropyl ester]", "EC50": 69}, {"smiles": "COc1c(OC2CCN(C(=O)OC(C)C)CC2)ncnc1N1CCc2cc(S(C)(=O)=O)ccc21", "note": "[Compound 8-1, 4-[6-(5-Methanesulfonyl-2,3-dihydro-indol-1-yl)-5-methoxy-pyrimidin-4-yloxy]-piperidine-1-carboxylic acid isopropyl ester]", "EC50": 201}, {"smiles": "Cc1c(OC2CCN(C(=O)OC(C)C)CC2)ncnc1N1CCc2ncccc21", "note": "[Compound 9-2, 4-[6-(2,3-Dihydro-pyrrolo[3,2-b]pyridin-1-yl)-5-methyl-pyrimidin-4-yloxy]-piperidine-1-carboxylic acid isopropyl ester]", "EC50": 312}, {"smiles": "CC(C)OC(=O)N1CCC(Oc2ccnc(N3CCc4cc(S(C)(=O)=O)ccc43)c2)CC1", "note": "[Compound 10-1, 4-[2-(5-Methanesulfonyl-2,3-dihydro-indol-1-yl)-pyridin-4-yloxy]-piperidine-1-carboxylic acid isopropyl ester]", "EC50": 588}, {"smiles": "CC(C)(C)OC(=O)N1CCC(Oc2ncnc(N3CCc4cc(S(C)(=O)=O)ccc43)c2F)CC1", "note": "[Compound 13-1, 4-[5-Fluoro-6-(5-methanesulfonyl-2,3-dihydro-indol-1-yl)-pyrimidin-4-yloxy]-piperidine-1-carboxylic acid tert-butyl ester]", "EC50": 382}, {"smiles": "CN(c1cc(N2CCc3cc(S(C)(=O)=O)ccc32)ncn1)C1CCN(C(=O)OC(C)(C)C)CC1", "note": "[Compound 16-1, 4-{[6-(5-Methanesulfonyl-2,3-dihydro-indol-1-yl)-pyrimidin-4-yl]-methyl-amino}-piperidine-1-carboxylic acid tert-butyl ester]", "EC50": 51}, {"smiles": "CCN(c1cc(N2CCc3cc(S(C)(=O)=O)ccc32)ncn1)C1CCN(C(=O)OC(C)(C)C)CC1", "note": "[Compound 16-2]", "EC50": 29}, {"smiles": "COCN(c1cc(N2CCc3cc(S(C)(=O)=O)ccc32)ncn1)C1CCN(C(=O)OC(C)(C)C)CC1", "note": "[Compound 16-3]", "EC50": 906}, {"smiles": "CCC(C)N(c1cc(N2CCc3cc(S(C)(=O)=O)ccc32)ncn1)C1CCN(C(=O)OC(C)(C)C)CC1", "note": "(stereo not shown) [Compound 16-4]", "EC50": 95}, {"smiles": "C=CCN(c1cc(N2CCc3cc(S(C)(=O)=O)ccc32)ncn1)C1CCN(C(=O)OC(C)(C)C)CC1", "note": "[Compound 16-5]", "EC50": 23}, {"smiles": "CC(C)(C)OC(=O)N1CCC(Oc2cc(N3CCc4nc(Cl)ccc43)ncn2)CC1", "note": "[Compound 20-1, 4-[6-(5-Chloro-2,3-dihydro-pyrrolo[3,2-b]pyridin-1-yl)-pyrimidin-4-yloxy]-piperidine-1-carboxylic acid tert-butyl ester]", "EC50": 751}, {"smiles": "CS(=O)(=O)c1ccc2c(c1)CCN2c1cc(OC2CCN(C(=O)OC3CCN(Cc4cccc(F)c4)C3)CC2)ncn1", "note": "(stereo not shown) [Compound 21-2]", "EC50": 278}, {"smiles": "CS(=O)(=O)c1ccc2c(c1)CCN2c1cc(OC2CCN(C(=O)OC3CCN(Cc4ccc(F)cc4)C3)CC2)ncn1", "note": "(stereo not shown) [Compound 21-3]", "EC50": 335}, {"smiles": "CS(=O)(=O)c1ccc2c(c1)CCN2c1cc(OC2CCN(C(=O)OC3CCN(Cc4cccc(F)c4F)C3)CC2)ncn1", "note": "(stereo not shown) [Compound 21-4]", "EC50": 343}, {"smiles": "CS(=O)(=O)c1ccc2c(c1)CCN2c1cc(OC2CCN(C(=O)OC3CCN(Cc4cc(F)cc(F)c4)C3)CC2)ncn1", "note": "(stereo not shown) [Compound 21-5]", "EC50": 308}]}, {"target": "T1, human GPR119 receptor", "assay": "cAMP assay (LANCE cAMP-384 Kit), cAMP accumulation in HEK293 cells stably expressing mutant human GPR119 receptor", "format": "cell-based", "settings": "single concentration 10 μM; given where no EC50 value could be determined; HEK293 cells expressing mutant human GPR119", "protocol": "as §1, §2", "values": [{"smiles": "CC(C)(C)OC(=O)N1CC(Oc2cc(N3CCc4cc(S(C)(=O)=O)ccc43)ncn2)C1", "note": "[Compound 15-1, 3-[6-(5-Methanesulfonyl-2,3-dihydro-indol-1-yl)-pyrimidin-4-yloxy]-azetidine-1-carboxylic acid tert-butyl ester]", "% stimulation at 10 μM": "22%"}, {"smiles": "CC(C)(C)OC(=O)N1CC[C@@H](Oc2cc(N3CCc4cc(S(C)(=O)=O)ccc43)ncn2)C1", "note": "[Compound 15-2, (R)-3-[6-(5-Methanesulfonyl-2,3-dihydro-indol-1-yl)-pyrimidin-4-yloxy]-pyrrolidine-1-carboxylic acid tert-butyl ester]", "% stimulation at 10 μM": "26%"}, {"smiles": "CS(=O)(=O)c1ccc2c(c1)CCN2c1cc(OC2CCN(C(=O)OC3CCN(Cc4ccccc4F)C3)CC2)ncn1", "note": "(stereo not shown) [Compound 21-1, 4-[6-(5-Methanesulfonyl-2,3-dihydro-indol-1-yl)-pyrimidin-4-yloxy]-piperidine-1-carboxylic acid 1-(2-fluoro-benzyl)-pyrrolidin-3-yl ester]", "% stimulation at 10 μM": "78%*"}, {"smiles": "CS(=O)(=O)c1ccc2c(c1)CCN2c1cc(OC2CCN(C(=O)OC3CCN(Cc4c(F)cccc4F)C3)CC2)ncn1", "note": "(stereo not shown) [Compound 21-6]", "% stimulation at 10 μM": "84%*"}, {"smiles": "CC(C)OC(=O)N1CCC(Oc2cc(N3CCc4cc(S(C)(=O)=O)ccc43)ncc2C#N)CC1", "note": "[Compound 24-1, 4-[5-Cyano-2-(5-methanesulfonyl-2,3-dihydro-indol-1-yl)-pyridin-4-yloxy]-piperidine-1-carboxylic acid isopropyl ester]", "% stimulation at 10 μM": "54%"}]}]}
